Test results taken from ChEMBL document CHEMBL3392983, “Synthesis, antimicrobial activity and molecular docking of novel tetracyclic scaffolds incorporating a flavonoid framework with medium sized oxygen heterocycles” (2015).
In brackets after ≈: the same amount, converted by molar mass.

What was measured:
Format in all cases: functional
Klebsiella pneumoniae = assay: Antimicrobial activity against Klebsiella pneumoniae ATCC 10031 assessed as inhibition of microbial growth incubated for 24 hrs by broth dilution method
Staphylococcus aureus [1] = assay: Antimicrobial activity against Staphylococcus aureus ATCC 25923 assessed as inhibition of microbial growth incubated for 24 hrs by broth dilution method
Escherichia coli [2] = assay: Bactericidal activity against Escherichia coli ATCC 10536 assessed as microbial killing during 18 hrs post sub-culture onto drug-free solid media by broth dilution method; details: ATCC 10536, 18 h, read-out: MBC99.9
Staphylococcus aureus [3] = assay: Bactericidal activity against Staphylococcus aureus ATCC 25923 assessed as microbial killing during 18 hrs post sub-culture onto drug-free solid media by broth dilution method; details: ATCC 25923, 18 h, read-out: MBC99.9
Candida albicans = assay: Antimicrobial activity against Candida albicans ATCC 10231 assessed as inhibition of microbial growth incubated for 72 hrs by broth dilution method; details: ATCC 10231, 72 h
Bacillus subtilis [4] = assay: Antimicrobial activity against Bacillus subtilis ATCC 6633 assessed as inhibition of microbial growth incubated for 24 hrs by broth dilution method
Bacillus subtilis [5] = assay: Bactericidal activity against Bacillus subtilis ATCC 6633 assessed as microbial killing during 18 hrs post sub-culture onto drug-free solid media by broth dilution method; details: ATCC 6633, 18 h, read-out: MBC99.9
Escherichia coli [6] = assay: Antimicrobial activity against Escherichia coli ATCC 10536 assessed as inhibition of microbial growth incubated for 24 hrs by broth dilution method
Pseudomonas aeruginosa [7] = assay: Antimicrobial activity against Pseudomonas aeruginosa ATCC 10145 assessed as inhibition of microbial growth incubated for 24 hrs by broth dilution method
Pseudomonas aeruginosa [8] = assay: Bactericidal activity against Pseudomonas aeruginosa ATCC 10145 assessed as microbial killing during 18 hrs post sub-culture onto drug-free solid media by broth dilution method; details: ATCC 10145, 18 h, read-out: MBC99.9
Candida tropicalis = assay: Antimicrobial activity against Candida tropicalis ATCC 750 assessed as inhibition of microbial growth incubated for 72 hrs by broth dilution method; details: ATCC 750, 72 h

Row | Compound | MIC (Klebsiella pneumoniae; ATCC 10031, 24 h) [µM] | MIC (Staphylococcus aureus [1]; ATCC 25923, 24 h) [µM] | MBC (Escherichia coli [2]) [µM] | MBC (Staphylococcus aureus [3]) [µM] | MIC (Candida albicans) [µM] | MIC (Bacillus subtilis [4]; ATCC 6633, 24 h) [µM] | MBC (Bacillus subtilis [5]) [µM] | MIC (Escherichia coli [6]; ATCC 10536, 24 h) [µM] | MIC (Pseudomonas aeruginosa [7]; ATCC 10145, 24 h) [µM] | MBC (Pseudomonas aeruginosa [8]) [µM] | MIC (Candida tropicalis) [µM] | MIC (Klebsiella pneumoniae) [µM] | MIC (Staphylococcus aureus [1]) [µM] | MIC (Bacillus subtilis [4]) [µM] | MIC (Escherichia coli [6]) [µM] | MIC (Pseudomonas aeruginosa [7]) [µM]
1 | O=c1c2c(oc3ccc(Br)cc13)-c1ccccc1OCCO2 | 0.083 | 0.027 | 0.061 (≈ 0.0219 µg/mL) | 0.023 (≈ 0.00826 µg/mL) | > 0.558 | 0.027 | 0.023 (≈ 0.00826 µg/mL) | 0.097 | 0.097 | 0.061 (≈ 0.0219 µg/mL) | > 0.558 |  |  |  |  | 
2 | O=c1c(O)c(-c2ccccc2O)oc2ccccc12 | 0.177 | 0.198 |  |  | > 0.787 | 0.218 |  | 0.177 | 0.157 |  | > 0.787 |  |  |  |  | 
3 | O=c1c2c(oc3ccc(F)cc13)-c1ccccc1OCCCCO2 | 0.046 | 0.153 | 0.055 (≈ 0.0179 µg/mL) | 0.081 (≈ 0.0264 µg/mL) | > 0.613 | 0.092 | 0.04 (≈ 0.0131 µg/mL) | 0.062 | 0.076 | 0.03 (≈ 0.00979 µg/mL) | > 0.613 |  |  |  |  | 
4 | O=c1c2c(oc3ccc(F)cc13)-c1ccccc1OCCCCCO2 | 0.088 | 0.132 | 0.074 (≈ 0.0252 µg/mL) | 0.11 (≈ 0.0374 µg/mL) | > 0.588 | 0.117 | 0.039 (≈ 0.0133 µg/mL) | 0.102 | 0.073 | 0.035 (≈ 0.0119 µg/mL) | > 0.588 |  |  |  |  | 
5 | O=c1c(O)c(-c2ccccc2O)oc2ccc(Br)cc12 | 0.135 | 0.152 |  |  | > 0.602 | 0.167 |  | 0.135 | 0.12 |  | > 0.602 |  |  |  |  | 
6 | OC(Cn1cncn1)(Cn1cncn1)c1ccc(F)cc1F [FLUCONAZOLE] |  |  |  |  | ≤ 0.033 |  |  |  |  |  | ≤ 0.033 |  |  |  |  | 
7 | O=c1c2c(oc3ccc(Cl)cc13)-c1ccccc1OCCO2 | 0.047 | 0.033 | 0.027 (≈ 0.0085 µg/mL) | 0.033 (≈ 0.0104 µg/mL) | > 0.636 | 0.065 | 0.035 (≈ 0.011 µg/mL) | 0.047 | 0.063 | 0.063 (≈ 0.0198 µg/mL) | > 0.636 |  |  |  |  | 
8 | O=c1c2c(oc3ccc(Cl)cc13)-c1ccccc1OCCCO2 | 0.106 | 0.092 | 0.03 (≈ 0.00986 µg/mL) | 0.051 (≈ 0.0168 µg/mL) | > 0.609 | 0.077 | 0.075 (≈ 0.0247 µg/mL) | 0.045 | 0.06 | 0.03 (≈ 0.00986 µg/mL) | > 0.609 |  |  |  |  | 
9 | O=c1c2c(oc3ccc(F)cc13)-c1ccccc1OCCCO2 | 0.112 | 0.129 | 0.096 (≈ 0.03 µg/mL) | 0.116 (≈ 0.0362 µg/mL) | > 0.641 | 0.081 | 0.032 (≈ 0.00999 µg/mL) | 0.16 | 0.064 | 0.032 (≈ 0.00999 µg/mL) | > 0.641 |  |  |  |  | 
10 | O=c1c2c(oc3ccc(Br)cc13)-c1ccccc1OCCCO2 | 0.026 | 0.053 | 0.027 (≈ 0.0101 µg/mL) | 0.025 (≈ 0.00933 µg/mL) | > 0.537 | 0.04 | 0.025 (≈ 0.00933 µg/mL) | 0.032 | 0.04 | 0.037 (≈ 0.0138 µg/mL) | > 0.537 |  |  |  |  | 
11 | O=c1c2c(oc3ccc(Cl)cc13)-c1ccccc1OCCCCCO2 | 0.028 | 0.14 | 0.034 (≈ 0.0121 µg/mL) | 0.088 (≈ 0.0314 µg/mL) | > 0.561 | 0.028 | 0.014 (≈ 0.005 µg/mL) | 0.057 | 0.07 | 0.028 (≈ 0.00999 µg/mL) | > 0.561 |  |  |  |  | 
12 | O=c1c2c(oc3ccc(Cl)cc13)-c1ccccc1OCCCCO2 | 0.146 | 0.204 | 0.028 (≈ 0.0096 µg/mL) | 0.154 (≈ 0.0528 µg/mL) | > 0.584 | 0.073 | 0.024 (≈ 0.00823 µg/mL) | 0.029 | 0.146 | 0.058 (≈ 0.0199 µg/mL) | > 0.584 |  |  |  |  | 
13 | O=c1c2c(oc3ccc(Br)cc13)-c1ccccc1OCCCCO2 | 0.09 | 0.079 | 0.027 (≈ 0.0105 µg/mL) | 0.024 (≈ 0.00929 µg/mL) | > 0.518 | 0.066 | 0.053 (≈ 0.0205 µg/mL) | 0.038 | 0.051 | 0.024 (≈ 0.00929 µg/mL) | > 0.518 |  |  |  |  | 
14 | O=c1c2c(oc3ccccc13)-c1ccccc1OCCO2 | 0.107 | 0.142 | 0.085 (≈ 0.0238 µg/mL) | 0.142 (≈ 0.0398 µg/mL) | > 0.714 | 0.071 | 0.071 (≈ 0.0199 µg/mL) | 0.108 | 0.125 | 0.071 (≈ 0.0199 µg/mL) | > 0.714 |  |  |  |  | 
15 | O=c1c2c(oc3ccc(Br)cc13)-c1ccccc1OCCCCCO2 | 0.037 | 0.051 | 0.02 (≈ 0.00803 µg/mL) | 0.04 (≈ 0.0161 µg/mL) | > 0.5 | 0.063 | 0.035 (≈ 0.014 µg/mL) | 0.025 | 0.062 | 0.05 (≈ 0.0201 µg/mL) | > 0.5 |  |  |  |  | 
16 | O=c1c2c(oc3ccccc13)-c1ccccc1OCCCCCO2 | 0.077 | 0.155 | 0.059 (≈ 0.019 µg/mL) | 0.154 (≈ 0.0496 µg/mL) | > 0.621 | 0.186 | 0.159 (≈ 0.0513 µg/mL) | 0.063 | 0.062 | 0.089 (≈ 0.0287 µg/mL) | > 0.621 |  |  |  |  | 
17 | O=c1c(O)c(-c2ccccc2O)oc2ccc(F)cc12 | 0.202 | 0.259 |  |  | > 0.735 | 0.167 |  | 0.22 | 0.275 |  | > 0.735 |  |  |  |  | 
18 | O=c1c2c(oc3ccccc13)-c1ccccc1OCCCO2 | 0.102 | 0.272 | 0.052 (≈ 0.0153 µg/mL) | 0.136 (≈ 0.04 µg/mL) | > 0.68 | 0.085 | 0.034 (≈ 0.01 µg/mL) | 0.051 | 0.136 | 0.084 (≈ 0.0247 µg/mL) | > 0.68 |  |  |  |  | 
19 | GENTAMICIN SULFATE |  |  |  |  |  |  |  |  |  |  |  | < 0.017 | < 0.017 | < 0.017 | < 0.017 | < 0.017
20 | O=c1c(O)c(-c2ccccc2O)oc2ccc(Cl)cc12 | 0.138 | 0.19 |  |  | > 0.694 | 0.173 |  | 0.14 | 0.157 |  | > 0.694 |  |  |  |  | 
21 | O=c1c2c(oc3ccccc13)-c1ccccc1OCCCCO2 | 0.064 | 0.097 | 0.072 (≈ 0.0222 µg/mL) | 0.059 (≈ 0.0182 µg/mL) | > 0.649 | 0.064 | 0.064 (≈ 0.0197 µg/mL) | 0.146 | 0.113 | 0.082 (≈ 0.0253 µg/mL) | > 0.649 |  |  |  |  | 
22 | O=c1c2c(oc3ccc(F)cc13)-c1ccccc1OCCO2 | 0.117 | 0.134 | 0.096 (≈ 0.0286 µg/mL) | 0.093 (≈ 0.0277 µg/mL) | > 0.671 | 0.117 | 0.073 (≈ 0.0218 µg/mL) | 0.167 | 0.1 | 0.033 (≈ 0.00984 µg/mL) | > 0.671 |  |  |  |  | 
